Data published in patent publication US9951045B2, “Indazole compounds as 5-HT4 receptor agonists” (SUVEN LIFE SCIENCES LIMITED, priority 2013, dated 2018).
Counter-ions that a name gives are not always drawn.

What was measured:
[1] = Rodent brain penetration study; type: in vivo, Male Wistar rats; conditions: male, Wistar, brain and plasma; rat, 3 mg/kg oral (gavage); read-out: Single dose Brain Penetration (Cb/Cp)
Experimental: Male Wistar rats (225±25 grams) were used as experimental animals. Three animals were housed in each cage. Animals were given water and food ad libitum throughout the experiment and maintained on a 12 hours light/dark cycle.
Brain penetration was determined in discrete manner in rats. One day prior to dosing day, male wistar rats (225-250 grams) were acclimatized. After acclimatization the rats were grouped according to their weight. In each group, 3 animals were kept in individual cage and allowed free access to food and water. At each time point (0.50, 1, and 2 hours) n=3 animals were used.
The compounds of formula (I) were suitably preformulated and administered orally at (free base equivalent) 3 mg/kg. Blood samples were removed via, cardiac puncture by using isoflurane anesthesia. The animals were sacrificed to collect brain tissue. Plasma was separated and brain samples were homogenized and stored frozen at −20° C. until analysis. The concentrations of the compounds of formula (I) in plasma and brain were determined using LC-MS/MS method.
The compounds of formula (I) were quantified in plasma and brain homogenate by qualified LC-MS/MS method using suitable extraction technique. The compounds of formula (I) were quantified in the calibration range of 1-500 ng/mL in plasma and brain homogenate. Study samples were analyzed using calibration samples in the batch and quality control samples spread across the batch. Extent of brain-plasma ratio was calculated (Cb/Cp).

[2] = Rodent pharmacokinetic study; type: in vivo, Male wistar rats; conditions: male, Wistar, plasma, rat; for bioavailability: 3 mg/kg oral vs 1 mg/kg intravenous
Experimental: Male wistar rats (225=25 grams) were used as experimental animals. Three to five animals were housed in each cage. Two days prior to dosing day, male wistar rats (225-250 grams) were anesthetized with isoflurane for surgical placement of jugular vein catheter. Animals were fasted over night before oral dosing (p.o) and food pellets were allowed 2 hours post dosing, whereas during intravenous dosing food and water were provided as ad libitum. Three rats were dosed with compounds of formula (I) (3 mg/kg) orally and intravenously (1 mg/kg).
At each time point blood was collected through jugular vein and immediately replenish with an equivalent volume of normal saline from freely moving rats. Collected blood was transferred into a labeled eppendr off containing 10 μL of heparin as anticoagulant. Typically blood samples were collected as following time points: Pre dose, 0.08 (only i.v.), 0.25, 0.5, 1, 2, 4, 6, 8, and 24 hours post
dose (n=3). Blood was centrifuged at 4000 rpm for 10 minutes. Plasma was prepared and stored frozen at −20° C. until analysis. The concentrations of the compounds of formula (I) were quantified in plasma by qualified LC-MS/MS method using suitable extraction technique. The compounds of formula (I) were quantified in the calibration range around 2-2000 ng/mL in plasma. Study samples were analyzed using calibration samples in the batch and quality control samples spread across the batch.
Pharmacokinetic parameters Cmax, Tmax, AUCt, T1/2 and Bioavailability were calculated by non-compartmental model using standard non-compartmental model by using WinNonLin 5.0.1 or Phoenix WinNonlin 6.2 version Software package.

[3] = target: T1, recombinant human 5-HT4 receptor (Homo sapiens, UniProt Q13639); test: Determination of EC50 values for 5-HT4 receptor (CHO cells, pCRE-Luc reporter); type: cell-based; conditions: luciferase reporter, 4 hours incubation, read-out: 5-HT4 receptor agonistic binding in-vitro EC50
T1 construct: expressed in transfected cells
Experimental: A stable CHO cell line expressing recombinant human 5-HT4 receptor and pCRE-Luc reporter system was used for cell-based assay. The assay offers a non-radioactive based approach to determine binding of a compound to GPCRs. In this specific assay, the level of intracellular cyclic AMP, which is modulated by activation, or inhibition of the receptor is measured. The recombinant cells harbor luciferase reporter gene under the control of cAMP response element.
The above cells were grown in 96 well clear bottom white plates in Hams F12 medium containing 10% fetal bovine serum (FBS). Prior to the addition of compounds or standard agonist, cells were serum starved overnight. Increasing concentrations of test compounds were added in OptiMEM medium to the cells. The incubation was continued at 37° C. in CO2 incubator for 4 hours. Medium was removed and cells were washed with phosphate buffered saline. The cells were lysed and luciferase activity was measured in a Luminometer. Luminescence units were plotted against the compound concentrations using Graphpad software. EC50 values of the compounds were defined as the concentration required in stimulating the luciferase activity by 50%.

Male Wistar rats = test: Object recognition task model; type: in vivo; conditions: rat, p.o.
Experimental: The cognition enhancing properties of compounds of this invention were estimated by using this model.
Male Wistar rats (230-280 grams) were used as experimental animals. Four animals were housed in each cage. Animals were kept on 20% food deprivation before one day and given water ad libitum throughout the experiment and maintained on a 12 hours light/dark cycle. Also the rats were habituated to individual arenas for 1 hour in the absence of any objects.
One group of 12 rats received vehicle (1 mL/Kg) orally and another set of animals received compound of the formula (I) either orally or i.p., before one hour of the familiar (T1) and choice trial (T2).
The experiment was carried out in a 50×50×50 cm open field made up of acrylic. In the familiarization phase, (T1), the rats were placed individually in the open field for 3 minutes, in which two identical objects (plastic bottles, 12.5 cm height×5.5 cm diameter) covered in yellow masking tape alone (a1 and a2) were positioned in two adjacent corners, 10 cms from the walls. After 24 hours of the (T1) trial for long-term memory test, the same rats were placed in the same arena as they were placed in T1 trial. Choice phase (T2) rats were allowed to explore the open field for 3 minutes in presence of one familiar object (a3) and one novel object (b) (Amber color glass bottle, 12 cm high and 5 cm in diameter). Familiar objects presented similar textures, colors and sizes. During the T1 and T2 trial, explorations of each object (defined as sniffing, licking, chewing or having moving vibrissae whilst directing the nose towards the object at a distance of less than 1 cm) were recorded separately by stopwatch. Sitting on an object was not regarded as exploratory activity, however, it was rarely observed.
T1 is the total time spent exploring the familiar objects (a1+a2).
T2 is the total time spent exploring the familiar object and novel object (a3+b).
The object recognition test was performed as described by Behaviour Brain Research, 31 (1988), 47-59.

[4] = system: Scopolamine Induced amnesia; test: Radial arm maze; type: in vivo, rats; conditions: p.o.
From the text: The cognition enhancing properties of compounds of formula (I) of this invention were estimated by using this model. Radial arm maze consists of a central hub of 45 cm diameter. Each arm was of dimension 42.5×15×24 cm. The maze was elevated to a height of 1 m above the ground. The animals were placed on a restricted diet until they reached approximately 85% of their free feeding weight. During this diet restriction period animals were habituated to the novel feed (pellets). Once the rats reached approximately 85% of their free feeding weight rats were habituated to the maze on the 1^St and 2nd day. […] Animals were randomized on day 2. On the subsequent days the treatment was given as per the allotment. Each animal was introduced into the maze individually for a period of 10 minutes. The arms were baited only once and the animal had to learn the rule that repeated arm entries would not be rewarded. The trial ended once the rat had visited 16 arms or 10 minutes were over or all the pellets were eaten. The arm entries were recorded using the software. Once the trial was over the rat was removed and the maze was cleaned using soap water.

sAPPα = test: Estimation of mice brain cortical sAPPα levels (ELISA); type: in vivo; conditions: 0.1 and 10 mg/kg s.c., single injection, 60 minutes
Experimental: 1. […] 2. […] 3. […] 4. […] 5. […] Statistical analyses were performed using the Graph Pad Prism (Version 4). […] Values were compared between the different groups by using unpaired t test.

T1 sequence (Q13639 whole entry): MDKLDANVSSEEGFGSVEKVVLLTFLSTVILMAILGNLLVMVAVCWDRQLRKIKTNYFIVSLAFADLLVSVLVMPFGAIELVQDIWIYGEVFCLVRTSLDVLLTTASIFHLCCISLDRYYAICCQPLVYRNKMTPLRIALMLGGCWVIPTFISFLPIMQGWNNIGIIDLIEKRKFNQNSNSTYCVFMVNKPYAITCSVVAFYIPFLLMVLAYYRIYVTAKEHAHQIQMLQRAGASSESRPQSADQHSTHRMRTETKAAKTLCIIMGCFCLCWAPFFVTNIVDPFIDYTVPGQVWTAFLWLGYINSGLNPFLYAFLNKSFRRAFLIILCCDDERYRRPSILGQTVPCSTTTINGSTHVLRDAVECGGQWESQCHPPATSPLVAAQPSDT

Kp [1]	AUC(0-t) ([2]; 1 mg/kg intravenous (bolus)) [ng·h/mL]	half-life ([2]; 1 mg/kg intravenous (bolus)) [min]	AUC(0-t) ([2]; 3 mg/kg oral (gavage)) [ng·h/mL]	Cmax ([2]; 3 mg/kg oral (gavage)) [ng/mL]	Tmax ([2]; 3 mg/kg oral (gavage)) [min]	half-life ([2]; 3 mg/kg oral (gavage)) [min]	bioavailability [2] [%]	EC50 [3] [nM]	Structure (SMILES)	Exploration time mean ± S.E.M, Familiar object (Male Wistar rats; 1 mg/kg) [s]	Exploration time mean ± S.E.M, Novel object (Male Wistar rats; 1 mg/kg) [s]	Inference (Male Wistar rats; 1 mg/kg)	Reversal of Scopolamine Induced amnesia - Effective dose range [4]	Exploration time mean ± S.E.M, Familiar object (Male Wistar rats; 0.3 mg/kg) [s]	Exploration time mean ± S.E.M, Novel object (Male Wistar rats; 0.3 mg/kg) [s]	Inference (Male Wistar rats; 0.3 mg/kg)	increase of mice brain cortical sAPPα levels in comparison with control group (sAPPα)
0.98 ± 0.34	287 ± 40	66 ± 6	212 ± 46	107 ± 22	25.2 ± 8.4	90	25 ± 5	≤ 1	CC(C)n1cc2cccc(C(=O)NCC3CCN(CC4CCOCC4)CC3)c2n1 [Example 1, N—[(N-tetrahydropyran-4-ylmethyl)piperidin-4-ylmethyl]-2-isopropyl-2H-indazole-7-carboxamide fumarate]	8.51 ± 1.35	15.51 ± 1.37	Active					
1 ± 0.15	145 ± 18	102 ± 30	190 ± 43	223 ± 118	19.8 ± 8.4	66 ± 36	44 ± 10	≤ 1	CCn1cc2cccc(C(=O)NCC3CCN(CC4CCOCC4)CC3)c2n1.O=C(O)/C=C/C(=O)O [Example 2, N—[(N-tetrahydropyran-4-ylmethyl)piperidin-4-ylmethyl]-2-ethyl-2H-indazole-7-carboxamide fumarate]				0.3 mg/kg, p.o.	7.21 ± 1.99	13.10 ± 1.78	Active	
0.96 ± 0.12	397 ± 28	54 ± 6	560 ± 117	467 ± 37	19.8 ± 8.4	48 ± 6	47 ± 10	1.1 to 5	COCCCN1CC2C(CNC(=O)c3cccc4cn(C(C)C)nc34)C2C1.O=C(O)C(=O)O (stereo not shown) [Example 3, N—[N-(3-methoxypropyl)-3-azabicyclo[3.1.0]hexane-6-ylmethyl]-2-isopropyl-2H-indazole-7-carboxamide oxalate]	5.67 ± 1.15	14.26 ± 1.64	Active	3 mg/kg, p.o.				25-30%
0.52 ± 0.08	281 ± 6	72 ± 6	155 ± 3	110 ± 8	30	48	18	≤ 1	CC(C)n1cc2cccc(C(=O)NCC3CCN(CC(C)(C)O)CC3)c2n1.O=C(O)C(O)C(O)C(=O)O [Example 32, N—[N-(2-hydroxy-2-methylpropyl)piperidin-4-ylmethyl]-2-isopropyl-2H-indazole-7-carboxamide L(+) Tartarate]				0.3 mg/kg, p.o.	7.79 ± 1.27	17.98 ± 2.41	Active	
